Data as given in ChEMBL document CHEMBL1151156, “Lakoochins A and B, new antimycobacterial stilbene derivatives from Artocarpus lakoocha” (J Nat Prod, 2004).
Converted amounts (≈) assume the structure as drawn. The source made the active and inactive calls. No cut-off for these calls is given here.

How the values were obtained:
[1] = Cytotoxicity against human BC cells by SRB assay; type: functional, cell-based
[2] = test system: Mycobacterium tuberculosis; test: Antimycobacterial activity against Mycobacterium tuberculosis H37Ra after 4 days by microplate alamar blue assay; type: functional; conditions: 96 h
KB [3] = test: Cytotoxicity against human KB cells at 20 ug/ml by SRB assay; type: functional, cell-based
KB [4] = test: Cytotoxicity against human KB cells by SRB assay; type: functional, cell-based

Question: Which IC50 [1] does the source give for `Cc1c2ccncc2c(C)c2c1[nH]c1ccccc12` [ELLIPTECINE] here?
Answer: 0.2 µg/mL (≈ 0.812 µM)

Question: Which MIC [2] does the source give for `NNC(=O)c1ccncc1` [ISONIAZID] here?
Answer: 0.04 µg/mL (≈ 0.292 µM)

Question: For `NC[C@H]1O[C@H](O[C@H]2[C@H](O)[C@@H](O[C@H]3O[C@H](CO)[C@@H](O)[C@H](N)[C@H]3O)[C@H](N)C[C@@H]2N)[C@H](O)[C@@H](O)[C@@H]1O.O=S(=O)(O)O` [KANAMYCIN SULFATE], which MIC [2] is on record?
Answer: 2 µg/mL

Question: For `COc1cc(OC)c(CC=C(C)C)c(-c2cc3ccc(O)cc3o2)c1CC=C(C)C` [LAKOOCHIN A], which Activity (KB [3]) is on record?
Answer: inactive

Question: And the MIC [2]?
Answer: 12.5 µg/mL (≈ 30.7 µM)

Question: And the IC50 [1]?
Answer: 6.1 µg/mL (≈ 15 µM)

Question: With `CC(C)=CCC/C(C)=C/Cc1c(O)cc(O)c(CC=C(C)C)c1-c1cc2ccc(O)cc2o1` [LAKOOCHIN B] as the compound, how does the MIC [2] read?
Answer: 50 µg/mL (≈ 112 µM)

Question: What about the IC50 [1] of the same compound?
Answer: 3.1 µg/mL (≈ 6.94 µM)

Question: And the IC50 (KB [4])?
Answer: 6.1 µg/mL (≈ 13.7 µM)
